Laboratory results published in patent publication US20220125765A1, “PHARMACEUTICAL COMBINATIONS COMPRISING MEBENDAZOLE AND A STRONG OR MODERATE CYP1A2 INHIBITOR” (ZEPHAPHARM LTD, priority 2019, published 2022).
Read-outs that look alike come from different tables or passages of the source.

How the values were obtained:
[1] = target: T1, CYP2C8 (Homo sapiens, UniProt P10632); assay: Cytochrome P450 reaction phenotyping, recombinant CYP2C8 (Bactosomes)
T1 sequence (P10632 1-490): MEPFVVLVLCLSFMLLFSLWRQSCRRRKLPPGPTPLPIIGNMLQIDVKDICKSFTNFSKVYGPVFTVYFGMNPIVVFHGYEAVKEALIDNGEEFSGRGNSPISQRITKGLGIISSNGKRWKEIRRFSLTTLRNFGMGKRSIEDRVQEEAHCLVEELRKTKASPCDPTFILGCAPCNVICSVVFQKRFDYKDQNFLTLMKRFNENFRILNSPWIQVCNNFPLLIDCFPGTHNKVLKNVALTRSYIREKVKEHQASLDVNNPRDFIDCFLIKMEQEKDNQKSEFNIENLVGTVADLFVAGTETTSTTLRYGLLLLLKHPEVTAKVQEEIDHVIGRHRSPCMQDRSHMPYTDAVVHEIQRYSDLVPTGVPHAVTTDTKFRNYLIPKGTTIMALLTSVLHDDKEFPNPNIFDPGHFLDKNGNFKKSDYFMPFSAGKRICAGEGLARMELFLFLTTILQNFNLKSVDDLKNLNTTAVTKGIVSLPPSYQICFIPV
Procedure: Incubations were also performed using control Bactosomes™ (no P450 enzymes present) to reveal any non-enzymatic degradation. Control compounds known to be metabolised specifically by each P450 isoform were included. All incubations were performed singularly for each test compound.
Incubations were also performed using control Bactosomes™ (no P450 enzymes present) to reveal any non-enzymatic degradation. Control compounds known to be metabolised specifically by each P450 isoform were included. All incubations were performed singularly for each test compound. […] The reactions were stopped by transferring an aliquot of incubate to quench solvent at the appropriate time points, in a 1:3 ratio. The termination plates were centrifuged at 3,000 rpm for 20 min at 4° C. to precipitate the protein.

[2] = test system: NBXF CHP-212; assay: 2D monolayer CellTiter-Blue viability, neuroblastoma CHP-212; assay type: cell-based; settings: 72 h
Procedure: (§1) Seventeen compounds, including mebendazole (Batch no. […] Efficacy of compounds was assessed using CellTiter-Blue® Cell Viability Assay. Anti-tumor activity is expressed as absolute and relative IC50 and IC70 values, calculated by non-linear regression analysis.

[3] = test system: SXFO Saos-2; assay: 2D monolayer CellTiter-Blue viability, osteosarcoma Saos-2; assay type: cell-based; settings: 72 h
Procedure: as §1

[4] = test system: SXFS SK-LMS-1; assay: 2D monolayer CellTiter-Blue viability, soft tissue sarcoma SK-LMS-1; assay type: cell-based; settings: 72 h
Procedure: as §1

[5] = test system: RXF 486L; assay: 2D monolayer CellTiter-Blue viability, renal cancer RXF 486L (P-gp expressing, multidrug resistant); assay type: cell-based; settings: for Test/Control (%) at Drug Concentration: 72 h; for IC50: RXF 486L
Procedure: Mebendazole was tested in vitro across a panel of 12 tumor cell lines of ovarian and renal cancer by using a 2D monolayer assay. […] OVXF 899L and RXF 486L are P-gp expressing, multidrug resistant cell lines.
Anti-tumor activity is expressed as absolute and relative IC50/70 values, calculated by 4-parameter non-linear curve fit.

[6] = target: T2, BCRP (Homo sapiens, UniProt Q9UNQ0); assay: in vitro
T2 sequence (Q9UNQ0 1-655): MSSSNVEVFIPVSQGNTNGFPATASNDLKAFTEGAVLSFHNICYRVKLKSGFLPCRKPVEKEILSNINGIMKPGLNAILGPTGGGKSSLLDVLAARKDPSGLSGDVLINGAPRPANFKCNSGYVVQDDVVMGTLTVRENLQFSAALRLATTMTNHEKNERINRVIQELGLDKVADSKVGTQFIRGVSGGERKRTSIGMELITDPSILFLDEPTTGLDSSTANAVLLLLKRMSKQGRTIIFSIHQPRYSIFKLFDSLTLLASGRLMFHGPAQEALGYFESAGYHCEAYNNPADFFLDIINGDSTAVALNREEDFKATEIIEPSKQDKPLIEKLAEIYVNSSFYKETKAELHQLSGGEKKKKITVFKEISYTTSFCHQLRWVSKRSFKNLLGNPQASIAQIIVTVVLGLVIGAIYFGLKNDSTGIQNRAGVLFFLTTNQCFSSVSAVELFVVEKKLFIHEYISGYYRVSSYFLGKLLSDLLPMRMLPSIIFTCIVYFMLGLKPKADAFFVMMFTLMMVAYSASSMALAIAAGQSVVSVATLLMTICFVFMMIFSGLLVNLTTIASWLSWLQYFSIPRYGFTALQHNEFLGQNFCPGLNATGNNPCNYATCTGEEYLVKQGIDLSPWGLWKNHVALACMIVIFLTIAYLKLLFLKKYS
Excerpt: Bidirectional apparent permeability of test compound was quantified by LC-MS/MS and used to determine an efflux ratio.

## COC(=O)Nc1nc2ccc(C(=O)c3ccccc3)cc2[nH]1 [Mebendazole, methyl N-(6-benzoyl-1H-benzimidazol-2-yl)carbamate]
[1]; CYP2C8, 5 μM, 0 min
  Compound Remaining (% of 0 min): 100 % of 0 min
[1]; CYP2C8, 5 μM, 5 min
  Compound Remaining (% of 0 min): 90.6 % of 0 min
[1]; CYP2C8, 5 μM, 15 min
  Compound Remaining (% of 0 min): 93.4 % of 0 min
[1]; CYP2C8, 5 μM, 30 min
  Compound Remaining (% of 0 min): 102 % of 0 min
[1]; CYP2C8, 5 μM, 45 min
  Compound Remaining (% of 0 min): 99.1 % of 0 min
[1]; CYP2C8, 5 μM, time not stated
  % compound remaining: > 87.5%
[1]; CYP2C8, substrate 5 μM
  t1/2: >2.25 h
[1]; human, recombinant CYP2C8 (Bactosomes), pH 7.4
  half-life at 5 μM: > 2.25 h
[2]; CHP-212, 1.0E+00 μM
  Test/Control (%) at Drug Concentration: 14%
[2]; CHP-212, 1.0E+01 μM
  Test/Control (%) at Drug Concentration: 23%
[2]; CHP-212, 1.0E+02 μM
  Test/Control (%) at Drug Concentration: 19%
[2]; CHP-212, 1.0E−01 μM
  Test/Control (%) at Drug Concentration: 59%
[2]; CHP-212, 1.0E−02 μM
  Test/Control (%) at Drug Concentration: 98%
[2]; CHP-212, 3.2E+00 μM
  Test/Control (%) at Drug Concentration: 20%
[2]; CHP-212, 3.2E+01 μM
  Test/Control (%) at Drug Concentration: 27%
[2]; CHP-212, 3.2E−01 μM
  Test/Control (%) at Drug Concentration: 19%
[2]; CHP-212, 3.2E−02 μM
  Test/Control (%) at Drug Concentration: 88%
[2]; CHP-212, 3.2E−03 μM
  Test/Control (%) at Drug Concentration: 95%
[3]; Saos-2, 1.0E+00 μM
  Test/Control (%) at Drug Concentration: 19%
[3]; Saos-2, 1.0E+01 μM
  Test/Control (%) at Drug Concentration: 11%
[3]; Saos-2, 1.0E+02 μM
  Test/Control (%) at Drug Concentration: 6%
[3]; Saos-2, 1.0E−01 μM
  Test/Control (%) at Drug Concentration: 73%
[3]; Saos-2, 1.0E−02 μM
  Test/Control (%) at Drug Concentration: 74%
[3]; Saos-2, 3.2E+00 μM
  Test/Control (%) at Drug Concentration: 20%
[3]; Saos-2, 3.2E+01 μM
  Test/Control (%) at Drug Concentration: 12%
[3]; Saos-2, 3.2E−01 μM
  Test/Control (%) at Drug Concentration: 29%
[3]; Saos-2, 3.2E−02 μM
  Test/Control (%) at Drug Concentration: 73%
[3]; Saos-2, 3.2E−03 μM
  Test/Control (%) at Drug Concentration: 77%
[4]; SK-LMS-1, 1.0E+00 μM
  Test/Control (%) at Drug Concentration: 27%
[4]; SK-LMS-1, 1.0E+01 μM
  Test/Control (%) at Drug Concentration: 9%
[4]; SK-LMS-1, 1.0E+02 μM
  Test/Control (%) at Drug Concentration: 3%
[4]; SK-LMS-1, 1.0E−01 μM
  Test/Control (%) at Drug Concentration: 80%
[4]; SK-LMS-1, 1.0E−02 μM
  Test/Control (%) at Drug Concentration: 90%
[4]; SK-LMS-1, 3.2E+00 μM
  Test/Control (%) at Drug Concentration: 16%
[4]; SK-LMS-1, 3.2E+01 μM
  Test/Control (%) at Drug Concentration: 5%
[4]; SK-LMS-1, 3.2E−01 μM
  Test/Control (%) at Drug Concentration: 45%
[4]; SK-LMS-1, 3.2E−02 μM
  Test/Control (%) at Drug Concentration: 83%
[4]; SK-LMS-1, 3.2E−03 μM
  Test/Control (%) at Drug Concentration: 101%
[5]; RXF 486, 1.0E+00 μM
  Test/Control (%) at Drug Concentration: 24%
[5]; RXF 486, 1.0E−01 μM
  Test/Control (%) at Drug Concentration: 88%
[5]; RXF 486, 1.0E−02 μM
  Test/Control (%) at Drug Concentration: 101%
[5]; RXF 486, 1.0E−03 μM
  Test/Control (%) at Drug Concentration: 97%
[5]; RXF 486, 1.0E−04 μM
  Test/Control (%) at Drug Concentration: 92%
[5]; RXF 486, 3.2E+00 μM
  Test/Control (%) at Drug Concentration: 17%
[5]; RXF 486, 3.2E−01 μM
  Test/Control (%) at Drug Concentration: 45%
[5]; RXF 486, 3.2E−02 μM
  Test/Control (%) at Drug Concentration: 92%
[5]; RXF 486, 3.2E−03 μM
  Test/Control (%) at Drug Concentration: 94%
[5]; RXF 486, 3.2E−04 μM
  Test/Control (%) at Drug Concentration: 96%
[5]; RXF 486, 72 h
  Abs. IC70: 545 nM
  Rel. IC70: 362 nM
[5]; RXF 486, 72 h, curve fit
  Bot. (%): 18%
  Top (%): 95%
[5]; RXF 486, 72 h, read-out: Abs. IC50
  IC50: 292 nM
[5]; RXF 486, 72 h, read-out: Rel. IC50
  IC50: 248 nM
[6]; Caco-2
  efflux ratio at 120 min, 10 μM: 1.23
[6]; Caco-2, Papp Mean
  Papp A→B at 120 min, 10 μM: 23.5 ×10⁻⁶ cm/s
  Papp B→A at 120 min, 10 μM: 29 ×10⁻⁶ cm/s
[6]; Caco-2, Papp Rep 1
  Papp A→B at 120 min, 10 μM: 19.7 ×10⁻⁶ cm/s
  Papp B→A at 120 min, 10 μM: 28.2 ×10⁻⁶ cm/s
[6]; Caco-2, Papp Rep 2
  Papp A→B at 120 min, 10 μM: 27.4 ×10⁻⁶ cm/s
  Papp B→A at 120 min, 10 μM: 29.8 ×10⁻⁶ cm/s
[6]; Caco-2, calculated mean % recovery values (range)
  recovery at 120 min, 10 µM: 52 to 75.7%
